From article PMC10222987 (Viruses, 2023)
Read-outs that look alike come from different tables or passages of the source.

How the values were obtained:
[1] = tested on: H1N1pdm09.PA/I38T; set-up: species or system BALB/c mice; settings: mouse, in vivo
[2] = tested on: rgH1N1.WT; settings: mouse, in vivo
[3] = tested on: rgH1N1.PA/I38T; set-up: species or system BALB/c mice; settings: mouse, in vivo
[4] = tested on: rgH1N1.PA/I38T; set-up: species or system BALB/c mice; settings: mouse, in vivo; remark: listed apart in the source
[5] = tested on: rgH1N1.NA/H275Y; set-up: species or system BALB/c mice; settings: mouse, in vivo
[6] = tested on: rgH1N1.WT; settings: mouse, in vivo; remark: listed apart in the source
[7] = tested on: H3N2 (rgA/Victoria/3/75) PA/I38T; settings: cited from earlier work
[8] = tested on: rgH1N1.NA/H275Y; set-up: species or system BALB/c mice; settings: mouse, in vivo; remark: listed apart in the source
[9] = tested on: rgH3N2.WT; settings: hamster, in vivo
[10] = tested on: H1N1 (rgA/WSN/33) NA/H275Y; settings: cited from earlier work
[11] = tested on: H1N1 (rgA/WSN/33) PA/I38T; settings: cited from earlier work
[12] = tested on: rgH3N2.PA/I38T; set-up: species or system Syrian hamsters; settings: hamster, in vivo
[13] = tested on: H1N1pdm09 (A/Osaka/129/2009) PA/I38T; type: cell-based, influenza A virus
[14] = tested on: rgH1N1.PA/I38T; set-up: species or system BALB/c mice; settings: mouse, in vivo; remark: listed apart in the source
[15] = tested on: H1N1 (rgA/WSN/33) PA/I38T; settings: cited from earlier work; remark: listed apart in the source
[16] = tested on: H1N1 (rgA/WSN/33) NA/H275Y; settings: cited from earlier work; remark: listed apart in the source
[17] = tested on: H3N2 (rgA/Victoria/3/75) PA/I38T; settings: cited from earlier work; remark: listed apart in the source

CCOC(=O)C1=C[C@@H](OC(CC)CC)[C@H](NC(C)=O)[C@@H](N)C1 [oseltamivir phosphate]
Lung virus titers vs vehicle [1]: statistically lower compared with vehicle | Degree of virus titer reduction [2]: 1.15 log10TCID50/mL | Lung virus titers vs vehicle [2]: statistically lower compared with vehicle | Mean virus titer [3]: 3.17 log10 TCID50/mL | Lung virus titers vs vehicle [4]: statistically lower compared with vehicle | Degree of virus titer reduction [5]: 0.38 log10TCID50/mL | Lung virus titers vs vehicle [5]: statistically lower compared with vehicle

O=C1c2c(O)c(=O)ccn2N([C@@H]2c3ccccc3SCc3c2ccc(F)c3F)[C@@H]2COCCN12 [baloxavir acid]
Lung virus titers vs vehicle, time course [1]: significantly lower with baloxavir than the vehicle-treated mice | Reduction in lung virus titers vs oseltamivir phosphate (5 mg/kg, twice daily) [1]: statistically similar | Viral rebound (increase in virus titers after dosing) [1]: did not observe any increase in virus titers | Lung virus titer ([1]; sc, 30 mg/kg): 1.87 log10TCID50/mL | Antiviral activity vs oseltamivir phosphate (5 mg/kg, twice daily) [2]: significantly greater than oseltamivir phosphate | Lung virus titer [2]: < 1.5 log10 TCID50/mL | Lung virus titers vs vehicle [2]: significantly lower than vehicle-treated groups at all doses | Inhibitory effect on loss of body weight vs vehicle [6]: significant inhibitory effect on loss of body weight | EC50 [7]: 63.8 nM | FC (fold change of EC50 relative to WT) [7]: 56.59 fold | Inhibitory effect on loss of body weight vs oseltamivir phosphate [8]: significantly greater with baloxavir acid than with oseltamivir phosphate | Inhibitory effect on loss of body weight vs vehicle [8]: significant inhibitory effect on loss of body weight | Reduction in virus titers vs vehicle and oseltamivir phosphate [9]: significantly higher reduction in virus titers | EC50 [10]: 0.32 nM | FC (fold change of EC50 relative to WT) [10]: 0.77 fold | EC50 [11]: 11.4 nM | FC (fold change of EC50 relative to WT) [11]: 27.24 fold | Antiviral effect vs oseltamivir phosphate (5 mg/kg, twice daily) [4]: statistically similar | Lung virus titers vs vehicle [4]: significantly lower than vehicle | Reduction of virus titers compared with vehicle [4]: 1.88 log10 TCID50/mL | Viral rebound (increase in virus titers after dosing) [4]: did not observe any increase in virus titers | Lung virus titers vs vehicle ([4]; sc, 10 mg/kg): significant decrease in virus titers | Reduction in virus titers vs vehicle and oseltamivir phosphate [12]: statistically significant reduction in virus titers | EC50 [13]: 15.7 nM | FC (fold change of EC50 relative to WT) [13]: 25.74 fold | Antiviral activity vs oseltamivir phosphate [5]: significantly higher antiviral activity compared with oseltamivir phosphate | Lung virus titer [5]: < 1.5 log10 TCID50/mL | Inhibitory effect on loss of body weight vs vehicle [14]: significant inhibitory effect on loss of body weight

CCC(CC)O[C@@H]1C=C(C(=O)O)C[C@H](N)[C@H]1NC(C)=O [oseltamivir acid]
FC (fold change of IC50 relative to WT) [15]: 1.00 fold | IC50 [15]: 0.8 nM | FC (fold change of IC50 relative to WT) [16]: 226.12 fold | IC50 [16]: 182 nM | FC (fold change of IC50 relative to WT) [17]: 1.21 fold | IC50 [17]: 0.16 nM
